Results: paper PMC11919836, “Multi-omics analysis reveals Jianpi formula-derived bioactive peptide-YG-22 potentially inhibited colorectal cancer via regulating epigenetic reprogram and signal pathway regulation” (Frontiers in Genetics, 2025)
Where no end group is shown, it is not given here.

Assays:
HCT116 cells [1] = assay: CCK-8 cell viability assay of candidate peptides; type: cell-based; conditions: peptide 5 mg/mL, 24 h, CCK-8, absorbance 450 nm, mean ± SEM n = 3, P < 0.01 vs control
Text: (§1) After comparing the differential expressed peptides between two treatment groups: chemotherapy alone (n = 5) and chemotherapy combined with Jianpi formula (n = 5). Six candidate peptides were finally screened out, including YP-16 (YGRKKRRQRRR-GPSVP), YP-17 (YGRKKRRQRRR-OLTSGP), YG-22 (YGRKKRRQRRR-DGSPGKDGVRG), YM-22 (YGRKKRRQRRR-LGEAFDGARDM), YP-23 (YGRKKRRQRRR-MEPLGRQLTSGP), and YD-28 (YGRKKRRQRRR-EDPQGDAAOKTDTSHHD). And then, the candidate peptides were synthesized based on their amino acid sequences to evaluate their effects on HCT116 cell viability. Briefly, a total of 1,500 cells per well were seeded in 96-well plates and incubated overnight in a culture medium under appropriate conditions. Following incubation, the cells were treated with indicated peptides (5 mg/mL) at the desired concentrations for 24 h. Cell viability was then assessed using the CCK-8 assay (Dojindo, Japan), following the manufacturer’s instructions. After adding the CCK-8 reagent and incubating for the recommended time, absorbance was measured at 450 nm using a spectrophotometric plate reader (Bio-Tek, United States). Furthermore, HCT116 cells were treated with varying concentrations of YG-22 (0, 2, 4, 6, 8, and 10 mg/mL) for either 24 or 48 h to determine the IC50 values. After the incubation with YG-22 (IC50 concentration) for 48 h, the HCT116 cells were collected for subsequent analyses, including RNA sequencing (RNA-seq) to evaluate gene expression profiles, liquid chromatography-mass spectrometry (LC-MS) for metabolite analysis, assay for transposase-accessible chromatin using sequencing (ATAC-seq) to assess chromatin accessibility, and chromatin immunoprecipitation sequencing (ChIP-seq) to study the H3K4Me3 profiling and NF-κB protein-DNA interactions.
There were at least three biological replicates, excluding ATAC-seq and ChIP-seq analysis, for each group. Cell viability evaluation data were reported as means ± SEM. Student’s t-test (two-tailed) or one-way ANOVA with Bonferroni’s multiple comparison test were used. P-values of <0.05, or 0.01, or 0.001 were deemed significant.

HCT116 cells [2] = assay: Chromatin accessibility analysis (ATAC-seq) of YG-22-treated cells; type: cell-based; conditions: HCT116, YG-22 1.769 mg/mL, 48 h
Text: as §1, with “After the incubation with YG-22 (IC50 concentration) for 48 h, the HCT116 cells were collected for subsequent analyses, including RNA sequencing (RNA-seq) to evaluate gene expression profiles, liquid chromatography-mass spectrometry (LC-MS) for metabolite analysis, assay for transposase-accessible chromatin using sequencing (ATAC-seq) to assess chromatin accessibility, and chromatin immunoprecipitation sequencing (ChIP-seq) to study the H3K4Me3 profiling and NF-κB protein-DNA interactions.” left out

HCT116 cells [3] = assay: Transcriptome analysis (RNA-seq) of YG-22-treated cells; type: cell-based; conditions: HCT116, YG-22 1.769 mg/mL, 48 h, treated vs control
Text: After comparing the differential expressed peptides between two treatment groups: chemotherapy alone (n = 5) and chemotherapy combined with Jianpi formula (n = 5). Six candidate peptides were finally screened out, including YP-16 (YGRKKRRQRRR-GPSVP), YP-17 (YGRKKRRQRRR-OLTSGP), YG-22 (YGRKKRRQRRR-DGSPGKDGVRG), YM-22 (YGRKKRRQRRR-LGEAFDGARDM), YP-23 (YGRKKRRQRRR-MEPLGRQLTSGP), and YD-28 (YGRKKRRQRRR-EDPQGDAAOKTDTSHHD). And then, the candidate peptides were synthesized based on their amino acid sequences to evaluate their effects on HCT116 cell viability. […] Cell viability was then assessed using the CCK-8 assay (Dojindo, Japan), following the manufacturer’s instructions. After adding the CCK-8 reagent and incubating for the recommended time, absorbance was measured at 450 nm using a spectrophotometric plate reader (Bio-Tek, United States). […]
For transcriptome analysis, treated and control HCT116 cells (1 × 10^5) are collected, and total RNA is extracted using RNA isolation kit (Qiagen, Germany) following the manufacturer’s instructions. Total RNA samples were prepared with an initial concentration of at least 20 ng/μL and a total quantity of at least 2 μg, ensuring an A260/A280 ratio between 1.9 and 2.1 for quality control. mRNA was isolated using oligo-dT beads to capture polyA-tailed transcripts, followed by thermal fragmentation into 200–300 bp fragments. […]

H3K4Me3 in HCT116 cells = assay: ChIP-seq H3K4Me3 profiling of YG-22-treated cells; type: cell-based, human; conditions: 48 h
Text: as §1
ChIP-seq analysis for H3K4Me3 profiling and NF-κB protein-DNA interactions was conducted using a combination of chromatin immunoprecipitation and high-throughput sequencing. HCT116 cells (5 × 10^6) were fixed with 1% formaldehyde to crosslink proteins and DNA, followed by quenching with glycine and lysis to isolate chromatin. The chromatin was sonicated to fragment DNA, and immunoprecipitation was performed using specific antibodies for H3K4Me3 and NF-κB, coupled with Protein A + G magnetic beads. The immunoprecipitated complexes were reverse crosslinked, and DNA was purified. High-throughput sequencing libraries were prepared through end repair, A-tailing, adapter ligation, and PCR amplification, targeting fragment sizes of 100–300 bp. Sequencing was performed on the Illumina NovaSeq 6,000 platform.
Bioinformatics analysis included quality control using FastQC, adapter trimming with fastp, and alignment of clean reads to the human reference genome (hg38) using Bowtie2. Peak calling was conducted with MACS2 to identify binding sites and histone modifications, followed by annotation using ChIPseeker. Motif analysis, using MEME and HOMER, identified enriched motifs within peak regions, particularly for NF-κB binding. Functional enrichment analysis was carried out with KEGG pathways to link identified peaks to pathways. Visualization tools, such as heatmaps and Circos plots, were used to highlight binding site distribution and signal enrichment across the genome, providing insights into chromatin modifications and transcription factor interactions under experimental conditions.

NF-κB in HCT116 cells = assay: ChIP-seq of NF-κB binding in YG-22-treated cells; type: cell-based, human
Text: as §1, with “interactions. […]” for “interactions.”
Bioinformatics analysis included quality control using FastQC, adapter trimming with fastp, and alignment of clean reads to the human reference genome (hg38) using Bowtie2. […]

HCT116 cells [4] = assay: Metabolomics analysis (LC-MS) of YG-22-treated cells; type: cell-based; conditions: HCT116, YG-22 1.769 mg/mL, 48 h
Text: as §1
For metabolomics analysis, treated and control HCT116 cells (1 × 10^5) are collected, washed with cold PBS, and lysed using 80% methanol to extract metabolites. The lysates are centrifuged at 12,000–15,000 × g at 4°C, and the supernatants are stored at −80°C. Metabolite profiling is performed using liquid chromatography-mass spectrometry (LC-MS) with a reverse-phase LC column and gradient elution, followed by high-resolution mass spectrometry in positive and/or negative ion modes. Data preprocessing involves peak detection, alignment, normalization, and filtering using software such as XCMS or Compound Discoverer. Metabolites are identified by matching m/z values, retention times, and fragmentation patterns to databases like HMDB or METLIN, with MS/MS used for structural confirmation. […] The results are visualized with heatmaps, volcano plots, and pathway diagrams, providing insights into metabolic changes induced by treatment.

[5] = HCT116, YG-22 1.769 mg/mL, ChIP-seq

YGRKKRRQRRR-EDPQGDAAOKTDTSHHD [YD-28]
effect on HCT116 cell viability (HCT116 cells [1]): notably reduced cell viability

YGRKKRRQRRR-OLTSGP [YP-17]
effect on HCT116 cell viability (HCT116 cells [1]): notably reduced cell viability

YGRKKRRQRRRDGSPGKDGVRG [YG-22]
downregulated differential chromatin accessibility peaks (HCT116 cells [2]): 1,697 | upregulated differential chromatin accessibility peaks (HCT116 cells [2]): 78 | downregulated genes (DEGs) (HCT116 cells [3]): 252 | upregulated genes (DEGs) (HCT116 cells [3]): 236 | downregulated differential H3K4me3 peaks (H3K4Me3 in HCT116 cells; [5]): 385 | upregulated differential H3K4me3 peaks (H3K4Me3 in HCT116 cells; [5]): 97 | intronic H3K4me3 peaks (H3K4Me3 in HCT116 cells; HCT116, YG-22-treated, control 5.2%): 4.5% | intergenic H3K4me3 peaks (H3K4Me3 in HCT116 cells; HCT116, YG-22-treated, control 7.1%): 6.3% | promoter-associated H3K4me3 peaks (H3K4Me3 in HCT116 cells; HCT116, YG-22-treated, control 86.3%): 87.8% | effect on HCT116 cell viability (HCT116 cells [1]): notably reduced cell viability | downregulated NF-κB peaks (NF-κB in HCT116 cells; HCT116, YG-22, 48 h, ChIP-seq): 36 | upregulated NF-κB peaks (NF-κB in HCT116 cells; HCT116, YG-22, 48 h, ChIP-seq): 26 | NF-κB peaks in distal intergenic regions (NF-κB in HCT116 cells; HCT116, YG-22-treated, 48 h, control 28.9%): 38.4% | downregulated metabolites, negative ion (NEG) mode (HCT116 cells [4]): 127 | downregulated metabolites, positive ion (POS) mode (HCT116 cells [4]): 70 | upregulated metabolites, negative ion (NEG) mode (HCT116 cells [4]): 121 | upregulated metabolites, positive ion (POS) mode (HCT116 cells [4]): 69

YGRKKRRQRRR-LGEAFDGARDM (YGRKKRRQRRRLGEAFDGARDM) [YM-22]
effect on HCT116 cell viability (HCT116 cells [1]): notably reduced cell viability
